Assay results: PMC5587768, “Ligand activation induces different conformational changes in CXCR3 receptor isoforms as evidenced by plasmon waveguide resonance (PWR)” (Scientific Reports, 2017)
Where “and” joins values, the source holds several entries; their conditions need not be identical. Identical values can stand only once. One block for each compound: values may come before it.

Assays:
HEK-CTRL cell fragments = test: Plasmon waveguide resonance (PWR) on HEK-CTRL cell fragments (empty GFP vector control); format: binding, human
Text: (§1) In contrast, membrane fragments of cells expressing either CXCR3-A or CXCR3-B responded to ligand stimulation in a saturable manner (Fig. 2; Fig. S3). […] PWR is sensitive to both, mass and structural changes. Inasmuch as the ligand is far too small to contribute to a mass change by itself, the PWR spectral changes observed correspond to ligand-induced receptor conformational changes (upon formation of the R/L complex). From the saturable and hyperbolic binding response, a dissociation constant was determined. The cell fragments are quite stable after sensor immobilization as no alterations in the spectra were observed after repetitive and extensive washing with buffer. Furthermore, lipids and receptors are oriented with their long axis along the p-polarization axis as shown by the anisotropic response. Thus, spectral modifications observed in p-polarization reflect changes along the receptor main axis, while modifications in s-polarization reflect changes along the receptor minor axis (Fig. S2). In HEK-CXCR3-A cells, agonist binding led to an increase in the resonance minimum position for both p- and s-polarization. A positive shift in the resonance angle is correlated with an increase in the refractive index due to a mass increase in the system. Since the ligand, by itself, is too small to be able to produce such spectral changes, the response can only be attributed to conformational change in the receptor which is reflected by an increase in mass density. […] The negative shift, while of considerably smaller magnitude, results from a slight decrease in the mass density in the system and can be attributed to a conformational change leading to a looser and less ordered arrangement of the TM helices accompanied by a slight decrease in length. Thus, agonist-mediated CXCR3 activation leads to opposite conformational changes depending on the CXCR3 isoform.
(§2) PWR measurements were performed in a homemade instrument equiped with a He-Ne laser, with a fixed wavelenght in the visible region (λ = 632 nm; Melles Griot), a rotating table allowing the incident angle to be changed by steps ≤1 mdeg (thus resolution being on that order; Newport) and a photodiode detector (Hamamatsu) to measure the reflected light as a function of the incident angle. The polarization angle of the incident beam is placed at 45° allowing both p- and s-polarized spectra to be obtained within the same angular scan. The sensor consisted in a BK-7 prism coated with silver and silica (to support waveguide modes)[36]. All measurements were performed at 22 °C in a temperature controlled room. More details about this technology can be found. The protocol for adhesion of cell fragments on silica (glass slides or PWR sensor) was adapted from reported work from Vogel and collaborators. […]

CXCR3-B [1] = molecular target: T1, CXCR3-B (Homo sapiens, UniProt P49682); test: Plasmon waveguide resonance (PWR) on HEK-CXCR3-B cell membrane fragments; format: binding; conditions: for Kd: HEK-CXCR3-B cell fragments, incremental ligand addition, hyperbolic fit
T1 construct: The coding regions of human CXCR3-A or CXCR3-B cDNA; expressed in transfected cells; host or cells: HEK-293, stably transfected (HEK-CXCR3-B)
T1 sequence (P49682 1-415 isoform P49682-2): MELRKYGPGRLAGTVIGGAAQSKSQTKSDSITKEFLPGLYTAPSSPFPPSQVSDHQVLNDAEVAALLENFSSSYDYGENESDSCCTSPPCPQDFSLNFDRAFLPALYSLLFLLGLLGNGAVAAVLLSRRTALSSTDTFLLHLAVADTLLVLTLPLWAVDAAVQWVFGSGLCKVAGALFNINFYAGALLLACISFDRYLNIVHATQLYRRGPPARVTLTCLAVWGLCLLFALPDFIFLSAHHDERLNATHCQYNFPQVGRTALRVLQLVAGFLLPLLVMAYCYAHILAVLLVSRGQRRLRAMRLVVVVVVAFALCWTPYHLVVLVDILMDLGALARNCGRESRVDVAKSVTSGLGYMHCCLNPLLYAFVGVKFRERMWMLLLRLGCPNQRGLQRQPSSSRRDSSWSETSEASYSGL
Text: (§3) Ligand-mediated activation of CXCR3 was studied by PWR and flow cytometry measuring calcium flux. The former technique allows to determine the affinity, ligand-binding kinetics and anisotropy of the events occurring at the sensor surface. This technique gives the possibility of following resonance with two types of polarizations, p- and s-polarizations. PWR can be applied both to artificial lipid model systems with reconstituted receptors or to cell fragments[27]–[34]. In the present study, cell membrane fragments from cells expressing the CXCR3-A and CXCR3-B receptors were immobilized on the PWR sensor which is composed of a prism coated with a silver layer and overcoated with a silica layer. The prism is pre-treated with polylysine to promote cell adhesion by electrostatic interactions between the negative charges provided by the cell surface glycosaminoglycans (GAGs) and the positive charges of polylysine. The quality of HEK-CTRL, HEK-CXCR3-A and HEK-CXCR3-B membrane fragments was verified by confocal microscopy by visualizing the GFP-tagged receptors using glass slides of the same material (silica) than the outer layer of the sensor surface (Fig. 1A). The presence of fluorescent membrane fragments on the glass slide of few μm were evidenced in agreement with reported literature.
as §1
as §2, with “found.” for “found. The protocol for adhesion of cell fragments on silica (glass slides or PWR sensor) was adapted from reported work from Vogel and collaborators.”

CXCR3-A [2] = molecular target: T2, CXCR3-A (Homo sapiens, UniProt P49682); test: Calcium flux by flow cytometry in HEK-CXCR3-A cells; format: cell-based
T2 construct: The coding regions of human CXCR3-A or CXCR3-B cDNA; expressed in transfected cells; host or cells: HEK-293, stably transfected (HEK-CXCR3-A)
T2 sequence (P49682 1-368): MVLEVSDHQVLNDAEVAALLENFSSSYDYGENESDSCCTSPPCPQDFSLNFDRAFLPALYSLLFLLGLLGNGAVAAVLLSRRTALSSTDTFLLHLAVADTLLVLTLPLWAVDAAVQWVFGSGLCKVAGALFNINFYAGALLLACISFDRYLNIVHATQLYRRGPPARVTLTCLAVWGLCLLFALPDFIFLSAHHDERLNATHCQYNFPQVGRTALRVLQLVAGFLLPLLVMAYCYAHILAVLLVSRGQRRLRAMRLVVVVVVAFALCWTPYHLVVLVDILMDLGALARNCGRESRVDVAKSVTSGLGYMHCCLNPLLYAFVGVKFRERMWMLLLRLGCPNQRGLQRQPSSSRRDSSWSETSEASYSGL
Experimental: (§4) Human Embryonic Kidney (HEK-293) cell lines, were regularly tested for contamination and were all mycoplasma-free. Cells were cultured in Dulbecco’s Modified Eagle’s medium (DMEM, Thermo Fisher Scientific) supplemented with 10% Fetal Bovine Serum (FBS), 5% antibiotics (Penicillin and […]) and 5% L-glutamine. All cells were grown at 37 °C, 5% CO2 and split at 70–90% of confluence with 0.25% Trypsin. Cell transfection was performed using Effecten kit (Qiagen) according to the manufacter’s instruction. HEK-CTRL (HEK-293 stably transfected with empty pEGFPN2 vectors) HEK-CXCR3-A cells and HEK-CXCR3-B (HEK-293 stably transfected with pEGFPN2 + CXCR3-A or pEGFPN2 + CXCR3-B vectors, respectivly) were grown in the presence of Zeocin (200 µg/ml). For inhibition experiments, cells were pretreated 1 h with the CXCR3 antagonist SCH546738 at dose-dependant concentration. SCH546738 is a small molecular lipophilic molecule, with the chemical formula: C23H31Cl2N7O. […] For this reason a concentration range from 0.5 to 2.2 nM has been used.
(§5) Intracellular calcium concentration was measured using Calcium Assay Kit (BD 640176) according to the manufacter’s procedure on an AccuriC6 flow cytometer equipped with BD AccuriC6 software (BD, San Jose, CA). Cells were placed in suspension and 1X Dye loading solution was added for 20 min at 37 °C. Calcium concentration was then recorded for 5 min on the AccuriC6 flow cytometer. CXCR3 agonist stimulation was performed after 2 min of recording and intracellular calcium increase was visualized. Calcium concentration after stimulation was normalized by calcium concentration before stimulation. Cells without 1X dye loading solution were used as a negative control in order to quantify the background level.

CXCR3 = conditions: cited from earlier work
CXCR3-A [3] = molecular target: T2, CXCR3-A; test: Plasmon waveguide resonance (PWR) on HEK-CXCR3-A cell membrane fragments; format: binding; conditions: for Kd: HEK-CXCR3-A cell fragments, incremental ligand addition, hyperbolic fit; for Difference in KD between CXCR3-A and CXCR3-B (higher affinity for CXCR3-A): KD CXCR3-B versus KD CXCR3-A
Text: as §3, §1
as §2, with “found.” for “found. The protocol for adhesion of cell fragments on silica (glass slides or PWR sensor) was adapted from reported work from Vogel and collaborators.”

CXCR3-B [4] = molecular target: T1, CXCR3-B; test: Calcium flux by flow cytometry in HEK-CXCR3-B cells; format: cell-based
Experimental: as §4, §5

Shift in resonance minimum position, P-pol (CXCR3-B [1]; HEK-CXCR3-B, p-polarization, incremental addition to saturation): -5 +/- 1 mdeg
Shift in resonance minimum position, S-pol (CXCR3-B [1]; HEK-CXCR3-B, s-polarization, incremental addition to saturation): -4 +/- 1 mdeg
Kd (CXCR3-B [1]; PWR): 450 nM
Intracellular calcium flux after agonist stimulation (CXCR3-A [2]; HEK-CXCR3-A cells): increase intracellular calcium flux
Shift in resonance minimum position, P-pol (CXCR3-A [3]; HEK-CXCR3-A, p-polarization, incremental addition to saturation): 16 +/- 12 mdeg
Shift in resonance minimum position, S-pol (CXCR3-A [3]; HEK-CXCR3-A, s-polarization, incremental addition to saturation): 4 +/- 1 mdeg
Kd (CXCR3-A [3]; PWR): 40 nM
Difference in KD between CXCR3-A and CXCR3-B (higher affinity for CXCR3-A) (CXCR3-A [3]; PWR): 10 fold
Intracellular calcium flux after agonist stimulation (CXCR3-B [4]; HEK-CXCR3-B cells): increase intracellular calcium flux
Compound: NC(N)=NCCC[C@H](NC(=O)[C@@H]1Cc2ccccc2CN1C(=O)CCC(=O)c1ccccc1)C(=O)NCC1CCCCC1 [PS372424]
Shift in resonance minimum position, P-pol (HEK-CTRL cell fragments; HEK-CTRL, p-polarization): 0 +/- 1 mdeg
Shift in resonance minimum position, S-pol (HEK-CTRL cell fragments; HEK-CTRL, s-polarization): 0 +/- 1 mdeg
KD (HEK-CTRL cell fragments; PWR, HEK-CTRL cell fragments): No binding
IC50 (CXCR3; isoforms not distinguished, read-out: IC50 reported for binding to CXCR3): 42 nM

Compound: CC[C@H]1CN(c2nc(N)c(C(N)=O)nc2Cl)CCN1C1CCN(Cc2ccc(Cl)cc2)CC1 [SCH546738]
PWR response of control cell fragments (non-specific binding) (HEK-CTRL cell fragments; HEK-CTRL cell fragments): did not respond
Kd (CXCR3-B [1]; PWR): 1.5 nM
Agonist binding after SCH546738 at 1 nM (CXCR3-B [1]; PWR, HEK-CXCR3-B, SCH546738 1 nM): binding was still observed
Agonist binding after SCH546738 at saturating concentration (CXCR3-B [1]; PWR, HEK-CXCR3-B, SCH546738 2.2 nM, 1 h): completely abolished
Receptor activation by agonist (calcium flux) after SCH546738 pretreatment (CXCR3-A [2]; HEK-CXCR3-A cells pretreated with SCH546738): no longer activated
Inhibition of CXCR3-A activation (calcium flux) (CXCR3-A [2]; at 1 nM): more than 70%
Kd (CXCR3; other reports and methods, read-out: Affinity to CXCR3 reported): 0.8 to 2.2 nM and 0.4 to 2.2 nM
Kd (CXCR3-A [3]; PWR): 0.5 nM
Agonist binding after SCH546738 at 1 nM (CXCR3-A [3]; PWR, HEK-CXCR3-A, SCH546738 1 nM): totally abrogated
Agonist binding after SCH546738 at saturating concentration (CXCR3-A [3]; PWR, HEK-CXCR3-A, SCH546738 2.2 nM, 1 h): completely abolished
Difference in KD between CXCR3-A and CXCR3-B (higher affinity for CXCR3-A) (CXCR3-A [3]; PWR): 3 fold
Receptor activation by agonist (calcium flux) after SCH546738 pretreatment (CXCR3-B [4]; HEK-CXCR3-B cells pretreated with SCH546738): no longer activated
Inhibition of CXCR3-B activation (calcium flux) (CXCR3-B [4]; at 1 nM): 25%
